# Test results reported in patent publication US20260297042A1, “BIARYLAMIDE DERIVATIVES AND THEIR USE AS PKMYT1 INHIBITORS” (CANCER RESEARCH TECHNOLOGY LIMITED, priority 2023, published 2026).
# Counter-ions that a name gives are not always drawn.
# Legend:
# [1] = biological target: T1, WEE1 (Homo sapiens, UniProt P30291); experiment: Selectivity versus WEE1 assay (ADP-Glo enzymatic assay); assay type: biochemical; settings: for IC50: ADP-Glo; for PKMYT1 vs. WEE1 selectivity: fold difference in selectivity for PKMYT1 over WEE1
# T1 construct: purchased Thermo Fisher PR7373A
# T1 sequence (P30291 whole entry): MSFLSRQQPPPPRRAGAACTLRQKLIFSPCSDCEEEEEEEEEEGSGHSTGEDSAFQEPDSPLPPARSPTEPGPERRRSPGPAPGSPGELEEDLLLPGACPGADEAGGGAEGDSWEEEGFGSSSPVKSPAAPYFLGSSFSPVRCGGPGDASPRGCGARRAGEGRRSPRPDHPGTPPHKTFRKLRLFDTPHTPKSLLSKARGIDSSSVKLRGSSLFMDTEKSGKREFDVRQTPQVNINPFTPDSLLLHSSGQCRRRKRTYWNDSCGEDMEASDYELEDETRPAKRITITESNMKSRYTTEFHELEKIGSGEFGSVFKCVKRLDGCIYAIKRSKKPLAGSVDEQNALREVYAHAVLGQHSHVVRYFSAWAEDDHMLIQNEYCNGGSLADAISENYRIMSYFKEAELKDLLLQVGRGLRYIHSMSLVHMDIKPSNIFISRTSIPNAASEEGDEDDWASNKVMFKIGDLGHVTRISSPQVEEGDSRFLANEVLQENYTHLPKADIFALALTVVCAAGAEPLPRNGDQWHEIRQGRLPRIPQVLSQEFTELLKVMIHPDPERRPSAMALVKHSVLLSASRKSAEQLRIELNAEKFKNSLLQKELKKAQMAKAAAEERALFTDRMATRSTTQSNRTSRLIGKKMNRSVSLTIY
# Procedure, shortened: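 Inhibition is measured as reduced ADP production, detected by luminescence with ADP-Glo, after enzyme (15 nM) and 30 µM ATP react for 60 min at 26° C in 1% DMSO-containing HEPES buffer, pH 7.5. Data are accepted only if replicate IC50s fall within 3-fold and r2 exceeds 0.9.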
# [2] = biological target: T2, Human PKMYT1 (Homo sapiens, UniProt Q99640); experiment: PKMYT1 biochemical ADP-Glo enzymatic assay; settings: ADP-Glo
# T2 construct: Human PKMYT1 75-362 was cloned as a TEV cleavable 6xHis fusion; 6xHis (TEV cleavable) (cleaved yes); made in house; host or cells: bacterial cells
# T2 sequence (Q99640 75-362): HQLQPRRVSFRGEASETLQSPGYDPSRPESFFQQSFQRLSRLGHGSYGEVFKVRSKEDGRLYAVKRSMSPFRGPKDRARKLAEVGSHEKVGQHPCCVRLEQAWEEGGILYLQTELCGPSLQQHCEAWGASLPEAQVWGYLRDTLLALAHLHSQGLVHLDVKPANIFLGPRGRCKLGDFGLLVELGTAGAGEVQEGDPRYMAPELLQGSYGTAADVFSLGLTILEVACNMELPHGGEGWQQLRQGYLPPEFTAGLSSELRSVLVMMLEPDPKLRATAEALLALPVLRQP
# Procedure, shortened: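 IC50 derived from luminescence (ADP-Glo Max) after PKMYT1 kinase domain, 15 nM, turned over 500 µM ATP for 60 min at 26 °C. Buffer contained 10 mM MgCl2, 1 mM EGTA and 0.01% Brij-35 at pH 7.5.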
# [3] = 15 nM WEE1, 60 minutes at 26° C., banded
# [4] = banded, ">N" = at least in this band but could be higher
# [5] = 15 nM PKMYT1 kinase domain, 500 µM ATP, 60 minutes at 26° C., banded
# [6] = PKMYT1 kinase domain 15 nM, banded values
Structure (SMILES),"IC50 [1, 3] [nM]","PKMYT1 vs. WEE1 selectivity [1, 4]","IC50 [2, 5] [nM]","IC50 ([1]; WEE1 15 nM, banded values) [nM]",PKMYT1 vs. WEE1 selectivity ([1]; banded),"IC50 [2, 6] [nM]"
"Cc1ccc(O)c(C)c1NC(=O)c1cnc(Nc2nc(C)c(Br)c(C)n2)s1 [BAA-295, 2-((5-bromo-4,6-dimethylpyrimidin-2-yl)amino)-N-(3-hydroxy-2,6-dimethylphenyl)thiazole-5-carboxamide]",> 11000,Y (1000-5000 fold),50 to 1000,–,–,–
"Cc1ccc(O)c(C)c1NC(=O)c1cnc(Nc2ccn(C(C)C(=O)N3CCN(C)CC3)n2)s1 (stereo not drawn) [BAA-534, N-(3-hydroxy-2,6-dimethylphenyl)-2-((1-(1-(4-methylpiperazin-1-yl)-1-oxopropan-2-yl)-1H-pyrazol-3-yl)amino)thiazole-5-carboxamide]",–,–,–,> 11000,Y (1000-5000 fold),< 50
COCC(=O)N1CC[C@@H](n2ccc(Nc3ncc(C(=O)Nc4c(C)ccc(O)c4C)s3)n2)C1 [BAA-092],> 11000,>X (100-<1000 fold),50 to 1000,–,–,–
Cc1ccc(O)c(C)c1NC(=O)c1cnc(Nc2ccn(CC(=O)NCCN3CCN(C(=O)OC(C)(C)C)CC3)n2)s1 [BAA-158],> 11000,X (100-<1000 fold),50 to 1000,–,–,–
"CCC(C(=O)N1CCN(C)CC1)n1ccc(Nc2ncc(C(=O)Nc3c(C)ccc(O)c3C)s2)n1 (stereo not drawn) [BAA-533, N-(3-hydroxy-2,6-dimethylphenyl)-2-((1-(1-(4-methylpiperazin-1-yl)-1-oxobutan-2-yl)-1H-pyrazol-3-yl)amino)thiazole-5-carboxamide]",–,–,–,> 11000,Y (1000-5000 fold),< 50
"Cc1ccc(O)c(C)c1NC(=O)c1cnc(Nc2cnn(CC(=O)N3CCCC3)c2)s1 [BAA-527, N-(3-hydroxy-2,6-dimethylphenyl)-2-((1-(2-oxo-2-(pyrrolidin-1-yl)ethyl)-1H-pyrazol-4-yl)amino)thiazole-5-carboxamide]",–,–,–,> 11000,W (10-<100 fold),50 to 1000
Cc1ccc(O)c(C)c1NC(=O)c1cnc(Nc2ccn(CC(=O)NCC3CCN(C(=O)OC(C)(C)C)CC3)n2)s1 [BAA-157],> 11000,X (100-<1000 fold),50 to 1000,–,–,–
"Cc1ccc(O)c(C)c1NC(=O)c1cnc(Nc2cc(C(=O)N3CCOCC3)n(C)n2)s1 [BAA-537, N-(3-hydroxy-2,6-dimethylphenyl)-2-((1-methyl-5-(morpholine-4-carbonyl)-1H-pyrazol-3-yl)amino)thiazole-5-carboxamide]",–,–,–,1000 to 11000,W (10-<100 fold),50 to 1000
"Cc1ccc(O)c(C)c1NC(=O)c1cnc(Nc2cc(N3CCNCC3)ncn2)s1 [BAA-575, N-(3-Hydroxy-2,6-dimethylphenyl)-2-((6-(piperazin-1-yl)pyrimidin-4-yl)amino)thiazole-5-carboxamide]",–,–,–,50 to 1000,W (10-<100 fold),< 50
"Cc1ccc(O)c(C)c1NC(=O)c1cnc(Nc2ccn(CC(=O)N3C[C@H]4C[C@@H]3CN4)n2)s1 [BAA-223, 2-((1-(2-((1R,4R)-2,5-diazabicyclo[2.2.1]heptan-2-yl)-2-oxoethyl)-1H-pyrazol-3-yl)amino)-N-(3-hydroxy-2,6-dimethylphenyl)thiazole-5-carboxamide]",> 11000,X (100-<1000 fold),< 50,–,–,–
"Cc1ccc(O)c(C)c1NC(=O)c1cnc(Nc2ccn(C3CCCC3)n2)s1 [BAA-014, 2-[(1-cyclopentylpyrazol-3-yl)amino]-N-(3-hydroxy-2,6-dimethyl-phenyl)thiazole-5-carboxamide]",1000 to 11000,W (10-<100 fold),< 50,–,–,–
"Cc1ccc(O)c(C)c1NC(=O)c1cnc(Nc2nc3c(s2)COCC3)s1 [BAA-029, 2-(6,7-dihydro-4H-pyrano[4,3-d]thiazol-2-ylamino)-N-(3-hydroxy-2,6-dimethyl-phenyl)thiazole-5-carboxamide]",> 11000,X (100-<1000 fold),50 to 1000,–,–,–
"Cc1ccc(O)c(C)c1NC(=O)c1cnc(Nc2ccc3c(c2)NC(=O)CO3)s1 [BAA-515, N-(3-hydroxy-2,6-dimethylphenyl)-2-((3-oxo-3,4-dihydro-2H-benzo[b][1,4]oxazin-6-yl)amino)thiazole-5-carboxamide]",–,–,–,1000 to 11000,X (100-<1000 fold),< 50
"Cc1ccc(O)c(C)c1NC(=O)c1cnc(Nc2ccn([C@@H]3CCN(C(=O)Cn4cccn4)C3)n2)s1 [BAA-103, N-(3-hydroxy-2,6-dimethyl-phenyl)-2-[1-[(3R)-1-(2-pyrazol-1-ylacetyl)pyrrolidin-3-yl]pyrazol-3-yllamino]thiazole-5-carboxamide]",> 11000,>X (100-<1000 fold),50 to 1000,–,–,–
"Cc1ccc(O)c(C)c1NC(=O)c1cnc(Nc2nn(-c3ccccc3)cc2C#N)s1 [BAA-389, 2-((4-cyano-1-phenyl-1H-pyrazol-3-yl)amino)-N-(3-hydroxy-2,6-dimethylphenyl)thiazole-5-carboxamide]",> 11000,Y (1000-5000 fold),< 50,–,–,–
"Cc1ccc(O)c(C)c1NC(=O)c1cnc(Nc2cc3ccc(Cl)cn3n2)s1 [BAA-051, 2-[(6-chloropyrazolo[1,5-a]pyridin-2-yl)amino]-N-(3-hydroxy-2,6-dimethyl-phenyl)thiazole-5-carboxamide]",> 11000,>X (100-<1000 fold),50 to 1000,–,–,–
"Cc1ccc(O)c(C)c1NC(=O)c1cnc(Nc2cc3ccccn3n2)s1 [BAA-048, N-(3-hydroxy-2,6-dimethyl-phenyl)-2-(pyrazolo[1,5-a]pyridin-2-ylamino)thiazole-5-carboxamide]",> 11000,Y (1000-5000 fold),50 to 1000,–,–,–
"Cc1ccc(O)c(C)c1NC(=O)c1cnc(Nc2nn(C)c3c2CCC3)s1 [BAA-247, N-(3-hydroxy-2,6-dimethylphenyl)-2-((1-methyl-1,4,5,6-tetrahydrocyclopenta[c]pyrazol-3-yl)amino)thiazole-5-carboxamide]",> 11000,Y (1000-5000 fold),50 to 1000,–,–,–
"C#Cc1cccc(Nc2ncc(C(=O)Nc3c(C)ccc(O)c3C)s2)n1 [BAA-431, 2-((6-ethynylpyridin-2-yl)amino)-N-(3-hydroxy-2,6-dimethylphenyl)thiazole-5-carboxamide]",–,–,–,> 11000,X (100-<1000 fold),50 to 1000
Cc1ccc(O)c(C)c1NC(=O)c1cnc(Nc2ccn(CC(=O)N3CCC(F)(F)C3)n2)s1 [BAA-176],> 11000,Y (1000-5000 fold),< 50,–,–,–
"CCOc1ccccc1Nc1ncc(C(=O)Nc2c(C)ccc(O)c2C)s1 [BAA-539, 2-((2-ethoxyphenyl)amino)-N-(3-hydroxy-2,6-dimethylphenyl)thiazole-5-carboxamide. TFA salt]",–,–,–,> 11000,X (100-<1000 fold),50 to 1000
Cc1ccc(O)c(C)c1NC(=O)c1cnc(Nc2ccn(CC(=O)N3CCN(C(=O)N(C)C)CC3)n2)s1 [BAA-154],> 11000,Y (1000-5000 fold),< 50,–,–,–
"Cc1ccc(O)c(C)c1NC(=O)c1cnc(Nc2ccc(S(C)(=O)=O)cc2)s1 [BAA-275, N-(3-Hydroxy-2,6-dimethylphenyl)-2-((4-(methylsulfonyl)phenyl)amino)thiazole-5-carboxamide]",> 11000,X (100-<1000 fold),< 50,–,–,–
"Cc1ccc(O)c(C)c1NC(=O)c1cnc(Nc2ccn(CC(=O)N3CC[C@@H](O)C3)n2)s1 [BAA-139, N-(3-hydroxy-2,6-dimethyl-phenyl)-2-[[1-[2-[(3R)-3-hydroxypyrrolidin-1-yl]-2-oxo-ethyl]pyrazol-3-yl]amino]thiazole-5-carboxamide]",> 11000,Y (1000-5000 fold),< 50,–,–,–
"Cc1nccc(Nc2ncc(C(=O)Nc3c(C)ccc(O)c3C)s2)n1 [BAA-434, N-(3-hydroxy-2,6-dimethylphenyl)-2-((2-methylpyrimidin-4-yl)amino)thiazole-5-carboxamide]",–,–,–,> 11000,Y (1000-5000 fold),< 50
"Cc1ccc(O)c(C)c1NC(=O)c1cnc(NC2CCN(S(C)(=O)=O)CC2)s1 [BAA-067, N-(3-hydroxy-2,6-dimethyl-phenyl)-2-[(1-methylsulfonyl-4-piperidyl)amino]thiazole-5-carboxamide]",> 11000,>W (10-<100 fold),1000 to 11000,–,–,–
